Experimental data from US20180280377A1, “Imidazo[4,5-c]quinolin-2-one Compounds and Their Use in Treating Cancer” (ASTRAZENECA AB, priority 2015, published 2018).

Experiments:
[1] = target: T1, mTOR (Homo sapiens, UniProt P42345); test: mTOR cellular potency assay (phospho-AKT Ser473 in MDA-MB-468 cells); format: cell-based; details: MDA-MB-468 cells, 2 h, phospho-AKT Ser473; Table 2; read-out: Assay d) mTOR Cell IC50
T1 construct: phosphorylation of the Akt protein at Ser473 (AKT lies downstream of PI3Kα in the signal transduction pathway) in the MDA-MB-468 cells; endogenous in cells; host or cells: MDA-MB-468 cells (ATCC HTB 132)
Excerpt: The following assays were used to measure the effects of the compounds of the present invention: a) ATM cellular potency assay; b) PI3K cellular potency assay; c) mTOR cellular potency assay; d) ATR cellular potency assay. During the description of the assays, generally: • i. The following abbreviations have been used: 4NQO=4-Nitroquinoline N-oxide; Ab=Antibody; BSA=Bovine Serum Albumin; CO2=Carbon Dioxide; DMEM=Dulbecco's Modified Eagle Medium; DMSO=Dimethyl Sulphoxide; EDTA=Ethylenediaminetetraacetic Acid; EGTA=Ethylene Glycol Tetraacetic Acid; ELISA=Enzyme-linked Immunosorbent Assay; EMEM=Eagle's Minimal Essential Medium; FBS=Foetal Bovine Serum; h=H(s); HRP=Horseradish Peroxidase; i.p.=intraperitoneal; PBS=Phosphate buffered saline; PBST=Phosphate buffered saline/Tween; TRIS=Tris(Hydroxymethyl)aminomethane; MTS reagent: [3-(4,5-dimethylthiazol-2-yl)-5-(3-carboxymethoxyphenyl)-2-(4-sulfophenyl)-2H-tetrazolium, inner salt, and an electron coupling reagent (phenazine methosulfate) PMS; s.c. sub-cutaneously. • ii. IC50 values were calculated using a smart fitting model in Genedata.
This assay was used to measure mTOR inhibition in cells. The aim of the phospho-AKT cell based mechanism of action assay using the Acumen Explorer is to identify inhibitors of either PI3Kα or mTOR-Rictor (Rapamycin insensitive companion of mTOR). This is measured by any decrease in the phosphorylation of the Akt protein at Ser473 (AKT lies downstream of PI3Kα in the signal transduction pathway) in the MDA-MB-468 cells following treatment with compound.
MDA-MB-468 cells (human breast adenocarcinoma #ATCC HTB 132) were seeded at 1500 cells/well in 40 μl of DMEM containing 10% FBS and 1% glutamine into Greiner 384 well black flat-bottomed plates. Cell plates were incubated for 18 h in a 37° C. incubator before dosing with compounds of Formula (I) in 100% DMSO using acoustic dispensing. Compounds were dosed in a 12 point concentration range into a randomised plate map. Control wells were generated either by dosing of 100% DMSO (max signal) or addition of a reference compound (a PI3K-62 inhibitor) that completely eliminated the pAKT signal (min control). Plates were incubated at 37° C. for 2 h; cells were then fixed by the addition of […] of a 3.7% formaldehyde solution. After 30 minutes the plates were washed with PBS using a Tecan PW384 plate washer. Wells were blocked and cells permeabilised with the addition of 40 μl of PBS containing 0.5% Tween20 and 1% Marvel™ (dried milk powder) and incubated for 60 minutes at r.t. The plates were washed with PBS containing 0.5% (v/v) Tween20 and 20 μl rabbit anti-phospho AKT Ser473 (Cell Signalling Technologies, #3787) in same PBS-Tween+1% MarvelTM was added and incubated overnight at 4° C.
Plates were washed 3 times with PBS+0.05% Tween 20 using a Tecan PW384. 20 μl of secondary antibody Alexa Fluor 488 anti-Rabbit (Molecular Probes, # A11008) diluted in PBS+0.05% Tween20 containing 1% Marvel™ was added to each well and incubated for 1 h at r.t. Plates were washed three times as before then 20 μl PBS added to each well and plates sealed with a black plate sealer.
The plates were read on an Acumen plate reader as soon as possible, measuring green fluorescence after excitation with 488 nm laser. Using this system IC50 values were generated and quality of plates was determined by control wells. Reference compounds were run each time to monitor assay performance.

[2] = target: T2, ATR (Homo sapiens, UniProt Q13535); test: ATR cellular potency assay (pChk1 Ser345 in HT29 cells after 4NQO); format: cell-based; details: pChk1 (Ser 345); Table 2; read-out: Assay b) ATR Cell IC50
T2 construct: endogenous in cells; host or cells: HT29 cells (ECACC #85061109)
T2 sequence (Q13535 whole entry): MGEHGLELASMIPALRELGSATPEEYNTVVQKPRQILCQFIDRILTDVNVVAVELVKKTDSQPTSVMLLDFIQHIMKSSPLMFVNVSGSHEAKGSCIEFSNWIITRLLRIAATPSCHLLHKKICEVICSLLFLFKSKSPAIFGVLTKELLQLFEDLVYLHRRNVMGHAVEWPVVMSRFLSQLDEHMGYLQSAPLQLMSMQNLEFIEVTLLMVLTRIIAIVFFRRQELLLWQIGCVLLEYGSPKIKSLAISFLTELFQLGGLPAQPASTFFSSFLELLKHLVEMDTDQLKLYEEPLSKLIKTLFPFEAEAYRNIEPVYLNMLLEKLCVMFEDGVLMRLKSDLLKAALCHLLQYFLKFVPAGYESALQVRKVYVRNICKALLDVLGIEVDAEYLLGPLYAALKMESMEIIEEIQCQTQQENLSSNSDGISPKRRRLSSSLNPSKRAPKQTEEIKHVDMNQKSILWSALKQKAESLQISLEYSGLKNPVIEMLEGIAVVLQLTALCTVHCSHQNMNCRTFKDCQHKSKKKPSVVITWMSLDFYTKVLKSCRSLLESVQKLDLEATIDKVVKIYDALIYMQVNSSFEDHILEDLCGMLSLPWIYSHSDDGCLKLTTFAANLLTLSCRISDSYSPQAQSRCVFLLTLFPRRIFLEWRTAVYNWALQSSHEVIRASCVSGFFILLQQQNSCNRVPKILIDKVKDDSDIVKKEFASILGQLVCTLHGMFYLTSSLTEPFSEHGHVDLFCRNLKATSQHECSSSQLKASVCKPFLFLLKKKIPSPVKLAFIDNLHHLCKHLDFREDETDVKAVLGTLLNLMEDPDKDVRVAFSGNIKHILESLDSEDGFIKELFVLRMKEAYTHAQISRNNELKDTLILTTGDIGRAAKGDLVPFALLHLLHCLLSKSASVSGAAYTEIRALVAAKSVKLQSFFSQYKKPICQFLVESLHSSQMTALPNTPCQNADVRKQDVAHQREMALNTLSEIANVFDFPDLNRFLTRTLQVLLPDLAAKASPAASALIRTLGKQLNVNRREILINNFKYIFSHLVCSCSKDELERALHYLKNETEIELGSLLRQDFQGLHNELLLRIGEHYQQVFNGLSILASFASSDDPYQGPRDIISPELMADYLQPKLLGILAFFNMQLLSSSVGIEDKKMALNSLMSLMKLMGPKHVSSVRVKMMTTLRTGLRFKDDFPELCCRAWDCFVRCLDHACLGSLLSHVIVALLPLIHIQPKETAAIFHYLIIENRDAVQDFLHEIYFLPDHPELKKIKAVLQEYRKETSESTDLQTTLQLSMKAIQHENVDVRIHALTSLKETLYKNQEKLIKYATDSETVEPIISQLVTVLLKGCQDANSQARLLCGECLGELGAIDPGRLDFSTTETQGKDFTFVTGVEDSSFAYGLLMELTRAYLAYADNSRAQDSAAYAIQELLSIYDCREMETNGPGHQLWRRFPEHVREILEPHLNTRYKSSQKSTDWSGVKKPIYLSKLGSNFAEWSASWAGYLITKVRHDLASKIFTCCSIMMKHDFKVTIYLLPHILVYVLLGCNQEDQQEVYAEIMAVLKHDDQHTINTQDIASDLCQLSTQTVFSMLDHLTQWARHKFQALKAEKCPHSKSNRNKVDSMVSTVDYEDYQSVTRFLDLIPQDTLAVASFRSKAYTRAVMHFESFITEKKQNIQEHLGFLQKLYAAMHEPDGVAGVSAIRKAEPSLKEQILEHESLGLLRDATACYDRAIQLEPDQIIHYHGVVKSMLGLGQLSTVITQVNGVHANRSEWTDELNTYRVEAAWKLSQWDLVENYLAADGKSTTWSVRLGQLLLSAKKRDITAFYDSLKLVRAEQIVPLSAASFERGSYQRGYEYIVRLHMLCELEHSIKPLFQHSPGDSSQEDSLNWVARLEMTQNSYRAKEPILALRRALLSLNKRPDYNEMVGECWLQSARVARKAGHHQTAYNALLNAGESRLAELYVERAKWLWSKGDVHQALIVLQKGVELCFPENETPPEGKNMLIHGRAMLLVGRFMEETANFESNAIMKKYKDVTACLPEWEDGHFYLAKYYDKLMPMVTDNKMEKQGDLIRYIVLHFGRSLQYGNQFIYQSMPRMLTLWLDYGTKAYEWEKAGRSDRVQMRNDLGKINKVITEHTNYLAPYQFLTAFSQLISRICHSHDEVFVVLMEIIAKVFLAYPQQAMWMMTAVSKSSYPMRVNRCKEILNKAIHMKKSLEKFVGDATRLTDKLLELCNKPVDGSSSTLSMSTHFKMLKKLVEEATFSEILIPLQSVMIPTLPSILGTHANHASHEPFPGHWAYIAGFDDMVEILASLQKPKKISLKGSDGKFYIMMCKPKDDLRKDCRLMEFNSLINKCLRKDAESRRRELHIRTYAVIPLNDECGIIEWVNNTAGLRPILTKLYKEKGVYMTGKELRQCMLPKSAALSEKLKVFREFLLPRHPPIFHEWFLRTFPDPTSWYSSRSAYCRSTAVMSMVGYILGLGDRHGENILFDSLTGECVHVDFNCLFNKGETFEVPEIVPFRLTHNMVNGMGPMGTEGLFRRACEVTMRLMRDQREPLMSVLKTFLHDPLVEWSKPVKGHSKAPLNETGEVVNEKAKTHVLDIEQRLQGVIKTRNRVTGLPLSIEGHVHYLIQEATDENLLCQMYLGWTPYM
T2 sequence (Q8WXE1 whole entry partner): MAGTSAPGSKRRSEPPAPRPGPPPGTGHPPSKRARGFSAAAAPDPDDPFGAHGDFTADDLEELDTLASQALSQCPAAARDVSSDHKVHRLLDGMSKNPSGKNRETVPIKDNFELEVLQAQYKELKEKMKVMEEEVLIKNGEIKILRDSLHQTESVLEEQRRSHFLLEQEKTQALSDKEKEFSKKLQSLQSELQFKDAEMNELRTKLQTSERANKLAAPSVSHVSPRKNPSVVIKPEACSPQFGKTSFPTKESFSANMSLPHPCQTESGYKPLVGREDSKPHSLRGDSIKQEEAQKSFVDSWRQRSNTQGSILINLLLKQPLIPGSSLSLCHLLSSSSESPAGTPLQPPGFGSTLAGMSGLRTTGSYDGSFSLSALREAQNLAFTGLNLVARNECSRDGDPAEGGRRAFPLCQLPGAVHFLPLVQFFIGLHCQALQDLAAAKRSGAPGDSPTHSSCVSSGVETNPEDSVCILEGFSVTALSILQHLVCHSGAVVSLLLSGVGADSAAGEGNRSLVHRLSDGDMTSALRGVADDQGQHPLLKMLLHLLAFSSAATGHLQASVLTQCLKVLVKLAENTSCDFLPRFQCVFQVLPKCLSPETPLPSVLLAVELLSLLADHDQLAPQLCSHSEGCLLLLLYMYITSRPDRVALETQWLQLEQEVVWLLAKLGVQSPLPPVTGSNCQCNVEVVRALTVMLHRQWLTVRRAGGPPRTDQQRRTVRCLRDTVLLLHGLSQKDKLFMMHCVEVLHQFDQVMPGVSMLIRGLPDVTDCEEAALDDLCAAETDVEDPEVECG

SMILES | IC50 [1] | IC50 [2]
CN(C)[C@H]1CCN(c2ccc(-c3cc4c(cc3F)ncc3c4n([C@H]4CCCOC4)c(=O)n3C)cn2)C1 [Example 20] | > 30 µM | > 30 µM
CNC1CCN(c2ccc(-c3ccc4ncc5c(c4c3)n([C@H]3C[C@@H](OC)C3)c(=O)n5C)cn2)CC1 [Example 60, 1-(cis-3-methoxycyclobutyl)-3-methyl-8-[6-[4-(methylamino)-1-piperidyl]-3-pyridyl]imidazo[4,5-c]quinolin-2-one] | 0.989 µM | > 30 µM
CO[C@H]1C[C@@H](n2c(=O)n(C)c3cnc4cc(F)c(-c5ccc(N6CCC(N(C)C)CC6)nc5)cc4c32)C1 [Example 42, 8-[6-[4-(dimethylamino)-1-piperidyl]-3-pyridyl]-7-fluoro-1-(cis-3-methoxycyclobutyl)-3-methyl-imidazo[4,5-c]quinolin-2-one] | > 15.3 µM | > 30 µM

More lines, in order of falling IC50 [1], values ahead:

IC50 [1] | IC50 [2] | SMILES
12.8 µM | > 30 µM | CO[C@H]1C[C@@H](n2c(=O)n(C)c3cnc4cc(F)c(-c5ccc(N6CC(N(C)C)C6)nc5)cc4c32)C1 [Example 31, 8-[6-[3-(dimethylamino)azetidin-1-yl]-3-pyridyl]-7-fluoro-1-(cis-3-methoxycyclobutyl)-3-methyl-imidazo[4,5-c]quinolin-2-one]
7.72 µM | > 30 µM | CNC1CCN(c2ccc(-c3cc4c(cc3F)ncc3c4n([C@H]4C[C@@H](OC)C4)c(=O)n3C)cn2)CC1 [Example 57, 7-Fluoro-1-(cis-3-methoxycyclobutyl)-3-methyl-8-[6-[4-(methylamino)-1-piperidyl]-3-pyridyl]imidazo[4,5-c]quinolin-2-one]
3.9 µM | > 30 µM | CO[C@H]1C[C@@H](n2c(=O)n(C)c3cnc4ccc(-c5ccc(N6CCC(N(C)C)CC6)nc5)cc4c32)C1 [Example 36, 8-[6-[4-(dimethylamino)-1-piperidyl]-3-pyridyl]-1-(cis-3-methoxycyclobutyl)-3-methyl-imidazo[4,5-c]quinolin-2-one]
1.5 µM | > 30 µM | CO[C@H]1CC[C@H](n2c(=O)n(C)c3cnc4ccc(-c5ccc(N6CCC(N(C)C)CC6)nc5)cc4c32)C1 (single isomer, unassigned) [Example 32, 8-[6-[4-(dimethylamino)-1-piperidyl]-3-pyridyl]-1-[trans-3-methoxycyclopentyl]-3-methyl-imidazo[4,5-c]quinolin-2-one]
0.616 µM | 1.42 µM | CN(C)[C@@H]1CCN(c2ccc(-c3ccc4ncc5c(c4c3)n([C@@H]3CCCOC3)c(=O)n5C)cn2)C1 [Example 7]
